The text below walks through data of patent US20180215784A1, “METHOD FOR PREPARATION OF N-ACYL PEPTIDES, POLYPEPTIDES AND PROTEINS” (NEODEL TEC LTD., priority 2015, published 2018).

The conditions of data set [1]: cited from earlier work.
Data set [2] deals with human skin fibroblast cell line CRL1121. The experiment in a line: Stimulation of pro-collagen synthesis/secretion in cultured human skin fibroblasts (immunoblotting, densitometry). The settings on record: for pro-collagen synthesis/secretion: serum-free medium with sodium ascorbate and 0.5% ethanol, vs control carrier, immunoblot FIG. 1. The format is cell-based. On the procedure:
The effect of N-octanoyl-Gly-Pro (also referred to herein as OGP) prepared in Example 2 on intracellular synthesis of pro-collagen, the precursor of collagen, was tested. OGP was applied from a 250 mg/ml stock solution in ethanol. The composition of the solute, estimated by thin layer chromatography, was 80% OGP, 15% nicotinamide and 5% octanoic acid.
The human skin fibroblast cell line CRL1121, obtained from ATCC (American Type Culture Collection), was used for monitoring pro-collagen synthesis. Cells were grown in high glucose-DMEM containing 10% Fetal Calf Serum and antibiotics (streptomycin and penicillin). Confluent cells were suspended and inoculated into wells in 96-well microplates at 7,500 cells/well. At confluency, the cells were placed on fresh medium plus sodium ascorbate (50 μg/ml) for 24 hrs. The cells were then washed with phosphate-buffered saline (PBS) and placed on serum-free medium containing sodium ascorbate, 0.5% ethanol and 50 μM OGP. Controls included cells placed in the same medium, without OGP. After 24 hrs incubation of the experimental and control cells, media were collected, centrifuged, and the proteins were denatured by SDS and heat, and stored at −20° C. for immunoblotting analyses. The cell layers were washed with PBS, dissolved in SDS sample buffer, centrifuged and stored at −20° C. until use.
The relative amount of pro-collagen secreted into the medium was determined by immunoblotting with an antibody directed to the C-terminal telopeptide of the α1(I) collagen chain, followed by enhanced chemiluminescence detection and densitometry (Shalitin N, Schlesinger H, Levy, M J, Kessler E, Kessler-Icekson G. Expression of procollagen C-proteinase enhancer in cultured rat heart fibroblasts: Evidence for co-regulation with type I collagen, J. Cell. Biochem. 90:397-407, 2003). Protein concentrations in the cell lysates were determined using the Lowry method and served for standardization. The relative Optical Density of the band corresponding to the (I) chain of pro-collagen was divided by the amount of protein and was expressed as D/P (i.e. band intensity per 1 μg protein). […] FIG. 2 presents the relative amounts of the produced and secreted pro-collagen in the OGP-treated culture compared to the control.

In brackets after ≈: the same amount, converted by molar mass. Read-outs that look alike come from different tables or passages of the source.

Take `NC(=O)c1cccnc1` [nicotinamide]: the solubility in data set [1] (ethanol) is 1 g/1.5 ml; in data set [1] (water) it was 1 g/mL (≈ 8190 mM).

With N-octanoyl-Gly-Pro [OGP], the pro-collagen synthesis/secretion result in data set [2] (50 μM OGP, 24 hrs) is recorded as “greatly enhanced pro-collagen synthesis”; in data set [2] (50 μM OGP, 24 hrs, listed as Oct-GP), “stimulates pro-collagen synthesis/secretion”. The “increase of pro-collagen synthesis and secretion (factor vs control)” value in data set [2] (50 μM OGP, 24 hrs, densitometry of control lanes 3 and 4, standardized to protein contents) is given as at least 8.3. The “relative amounts of pro-collagen produced and secreted into the medium (D/P ratio)” value in data set [2] (Oct-GP-treated culture vs control, densitometry standardized by protein, FIG. 2) is listed as “higher than those of the control”.
